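Five concentrations, 48 hours, 96-well plates. GI50: concentration for 50% inhibition of growth.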 Calls of active or inactive are those of the source. No stated cut-off is given here; in the data, active = GI50 up to about 1.1 µM and inactive = higher.
How the values were obtained:
Test in all cases: NCI anticancer screen, dose series, 48 h
786-0 = tested on: 786-0
BT-549 = tested on: BT-549
COLO 205 = tested on: COLO 205
HCC 2998 = tested on: HCC 2998
HOP-92 = tested on: HOP-92
Hs-578T = tested on: Hs-578T
IGROV-1 = tested on: IGROV-1
K562 = tested on: K562
LOX IMVI = tested on: LOX IMVI
M14 = tested on: M14
MCF7 = tested on: MCF7
MDA-MB-435 = tested on: MDA-MB-435
MOLT-4 = tested on: MOLT-4
NCI-H23 = tested on: NCI-H23
PC-3 = tested on: PC-3
RXF 393 = tested on: RXF 393
SK-OV-3 = tested on: SK-OV-3
SN12C = tested on: SN12C
SW-620 = tested on: SW-620
SF-539 = tested on: SF-539

Measured: GI50

O=C(O)CCSCc1ccc(I)cc1
inactive: 786-0 > 100 µM | BT-549 > 100 µM | COLO 205 > 100 µM | HCC 2998 > 100 µM | HOP-92 > 100 µM | Hs-578T > 100 µM | IGROV-1 > 100 µM | K562 > 100 µM | LOX IMVI > 100 µM | M14 > 100 µM | MCF7 > 100 µM | MDA-MB-435 > 100 µM | MOLT-4 > 100 µM | NCI-H23 > 100 µM | PC-3 > 100 µM | RXF 393 96.4 µM | SK-OV-3 > 100 µM | SN12C > 100 µM | SW-620 > 100 µM

CCCCN(c1ccccc1)c1ncnc2c1cnn2C
inactive: 786-0 53.3 µM | BT-549 20.3 µM | COLO 205 > 100 µM | HCC 2998 36.8 µM | HOP-92 25.7 µM | Hs-578T 22.4 µM | IGROV-1 34.7 µM | K562 28.2 µM | LOX IMVI 46.3 µM | M14 48.2 µM | MCF7 32.4 µM | MDA-MB-435 37.5 µM | MOLT-4 8.69 µM | NCI-H23 30.1 µM | PC-3 27.5 µM | RXF 393 23.4 µM | SK-OV-3 50.1 µM | SN12C 65 µM | SW-620 29.2 µM

Cc1ccc(S(=O)(=O)ON2C(=O)c3cccc4cc([N+](=O)[O-])cc(c34)C2=O)cc1
inactive: 786-0 47.5 µM | BT-549 27 µM | COLO 205 81.5 µM | HCC 2998 23.8 µM | HOP-92 50.5 µM | Hs-578T 68.1 µM | IGROV-1 40.6 µM | LOX IMVI 32 µM | M14 > 100 µM | MCF7 33.7 µM | MDA-MB-435 40.3 µM | MOLT-4 28.6 µM | NCI-H23 > 100 µM | PC-3 > 100 µM | RXF 393 44.3 µM | SK-OV-3 38.9 µM | SN12C 81.3 µM | SW-620 66.1 µM

N#C[C@H](c1nc2ccccc2s1)c1nc2ccccc2nc1Cl
inactive: 786-0 > 100 µM | BT-549 4.79 µM | COLO 205 > 100 µM | HCC 2998 2.67 µM | HOP-92 19.1 µM | Hs-578T 94.6 µM | IGROV-1 > 100 µM | M14 15.7 µM | MCF7 5.56 µM | MDA-MB-435 > 100 µM | MOLT-4 > 100 µM | NCI-H23 15.3 µM | PC-3 31 µM | RXF 393 13.4 µM | SF-539 37 µM | SK-OV-3 23.6 µM | SN12C > 100 µM | SW-620 > 100 µM

COC(=O)C(/C(=N/NC(N)=O)C(=O)Nc1ccc(C)cc1)c1nc2ccc([N+](=O)[O-])cc2nc1O (stereo not given)
inactive: 786-0 > 100 µM | BT-549 > 100 µM | HCC 2998 70.1 µM | HOP-92 > 100 µM | Hs-578T 67.3 µM | IGROV-1 > 100 µM | K562 > 100 µM | LOX IMVI 69.3 µM | M14 > 100 µM | MCF7 > 100 µM | MDA-MB-435 > 100 µM | MOLT-4 > 100 µM | PC-3 > 100 µM | RXF 393 > 100 µM | SF-539 > 100 µM | SK-OV-3 > 100 µM | SN12C > 100 µM | SW-620 > 100 µM

O=C(/C=C/c1cc(F)ccc1F)OCCc1ccccc1
inactive: 786-0 89.3 µM | BT-549 > 100 µM | COLO 205 > 100 µM | HCC 2998 > 100 µM | HOP-92 40.6 µM | Hs-578T 1.67 µM | IGROV-1 > 100 µM | K562 52.1 µM | M14 > 100 µM | MCF7 42.2 µM | MDA-MB-435 > 100 µM | MOLT-4 49.3 µM | NCI-H23 > 100 µM | PC-3 49.4 µM | RXF 393 91.6 µM | SF-539 88.5 µM | SW-620 > 100 µM

NC(Cc1ccc(O)cn1)C(=O)O (stereo not given)
inactive: 786-0 > 100 µM | BT-549 > 100 µM | COLO 205 > 100 µM | HCC 2998 > 100 µM | HOP-92 > 100 µM | Hs-578T 4.19 µM | IGROV-1 > 100 µM | K562 > 100 µM | LOX IMVI > 100 µM | MCF7 > 100 µM | MDA-MB-435 84.1 µM | MOLT-4 > 100 µM | NCI-H23 > 100 µM | PC-3 > 100 µM | RXF 393 > 100 µM | SF-539 > 100 µM | SN12C > 100 µM | SW-620 > 100 µM

C/C=C1/CN2CCc3c([nH]c4ccccc34)[C@@H]2C[C@@H]1Cc1nccc2c1[nH]c1cc(O)ccc12
inactive: 786-0 1.61 µM | BT-549 13.9 µM | COLO 205 2.78 µM | HCC 2998 1.42 µM | HOP-92 6.38 µM | Hs-578T 2.23 µM | K562 2.13 µM | LOX IMVI 2.77 µM | M14 2.16 µM | MCF7 2.62 µM | MDA-MB-435 1.9 µM | MOLT-4 2.58 µM | NCI-H23 2.1 µM | PC-3 2.25 µM | RXF 393 2.24 µM | SF-539 2.02 µM | SK-OV-3 2.17 µM | SN12C 1.66 µM | SW-620 2.82 µM

CCN1CC2(C)CCC(OC)C34C5CC6CCC(O)(C5C(=O)O6)C(C(O)C23)C14 (stereo not given)
inactive: 786-0 > 100 µM | BT-549 > 100 µM | COLO 205 > 100 µM | HCC 2998 > 10 µM | HOP-92 > 100 µM | Hs-578T > 100 µM | IGROV-1 > 100 µM | K562 > 100 µM | LOX IMVI > 100 µM | M14 > 100 µM | MCF7 > 100 µM | MDA-MB-435 > 100 µM | MOLT-4 > 100 µM | NCI-H23 > 100 µM | PC-3 > 100 µM | RXF 393 > 100 µM | SF-539 > 100 µM | SK-OV-3 > 100 µM | SW-620 > 100 µM

O=C(Nc1ccc(Cl)cc1)c1cc(S(=O)(=O)Nc2nnc3c(Cl)cc(C(F)(F)F)cn23)c(S)cc1Cl
inactive: 786-0 > 100 µM | BT-549 > 100 µM | COLO 205 > 100 µM | HCC 2998 > 100 µM | HOP-92 > 100 µM | Hs-578T 46.5 µM | IGROV-1 > 100 µM | K562 > 100 µM | M14 > 100 µM | MCF7 > 100 µM | MDA-MB-435 49.9 µM | MOLT-4 66.8 µM | NCI-H23 59.7 µM | PC-3 83 µM | RXF 393 > 100 µM | SF-539 > 100 µM | SK-OV-3 41.9 µM | SN12C 84.5 µM

CCCn1cnc2c(/N=N/O)ncnc21
inactive: 786-0 > 100 µM | BT-549 > 100 µM | COLO 205 > 100 µM | HCC 2998 > 100 µM | HOP-92 > 100 µM | Hs-578T > 100 µM | IGROV-1 > 100 µM | K562 > 100 µM | M14 > 100 µM | MCF7 > 100 µM | MDA-MB-435 > 100 µM | MOLT-4 > 100 µM | NCI-H23 > 100 µM | PC-3 > 100 µM | RXF 393 > 100 µM | SF-539 > 100 µM | SW-620 > 100 µM

— ChEMBL document CHEMBL1201862, “PubChem BioAssay data set” (2004)
